Source: US20250136606A1, “MODULATORS OF TRPML, THEIR COMPOSITIONS AND METHODS OF USE” (Caraway Therapeutics, Inc., priority 2021, published 2025)
pEC50: −log10 of the molar value. Where two headings read alike, the source gives them in different places.

Legend:
[1] = molecular target: TRPML1 (Homo sapiens, UniProt Q9GZU1); experiment: Fluorescent TRPML1 assay (Fluo4-AM calcium fluorescence in doxycycline-induced HEK-293 Trex cells); assay type: cell-based
Experimental: (§1) HEK-293 Trex cells were stably transfected with a construct consisting of the human coding sequence for TRPML1 cloned into the […] plasmid pCDNA5 T/O. Mutations were introduced into the TRPML1 sequence to facilitate expression on the cell surface (Silvia Vergarajauregui, Rosa Puertollano, Traffic. 2006 March; 7(3): 337-353). Briefly, the cells are cultured in 150 mm round tissue culture dishes containing 20 mL of media. The day before the assay the cells are rinsed with DPBS-Ca—Mg and then treated briefly with Trypsin-EDTA. The Trypsin-EDTA is diluted with growth media, and cells are counted. 38×10^6 cells are re-plated into 150 mm round tissue culture dishes in media containing 0.5 ug/mL doxycycline to induce expression of hTRPML1.
(§2) The day of the experiment cells are lifted from the plates as above and collected by centrifugation. The cells are then suspended in dye loading buffer consisting of Ringer's solution supplemented with 0.1% Pluronic Acid and 1 micromolar Fluo4-AM dye. Cells are loaded for ˜60 minutes in the dark with occasional mixing. The cells are collected by centrifugation, the loading media aspirated, and the cells resuspended in 25 mL Ringer's solution and incubated ˜60 minutes in the dark. The cells are again collected by centrifugation, rinsed in Ringer's Solution and resuspended to […] in modified Ringer's solution containing 10 mM calcium.
(§3) Compounds are dissolved to a concentration of 10 millimolar with DMSO. Compound plates are created by dispensing compounds into 384 well black wall clear bottom plates (Greiner 781091). Positive and negative controls are included on each plate. Typically, different amounts of each compound are tested ranging from 100 nanoMoles (20 micromolar final concentration) decreasing in half-log steps to 31 picoMoles (6 nanomolar final concentration). Each concentration is typically tested in triplicate.
(§4) 50 microliters of dye-loaded cells are dispensed into each well of the compound assay plate created above. The fluorescence in each well is then determined with an excitation wavelength of 480 nm and an emission wavelength of 540 nm using either a Molecular Devices SpectraMax multimode plate reader or a Hamamatsu FDSS/uCell plate imager.
(§5) The resulting fluorescence for each well is exported as an ascii file and loaded into our LIMS for analysis. The percent activity of each compound at each concentration is determined by comparison to the positive and negative control wells included in each plate.
(§6) EC50 values were calculated using a non-linear regression of Prism. In the table, “A” indicates an EC50 of less than 100 nM, “B” indicates an EC50 range from 100 nM to 500 nM; “C” indicates an EC50 range from 500 nM to 2 μM; and “D” indicates an EC50 greater than 2 μM.

[2] = molecular target: T1, TRPML3 (Homo sapiens, UniProt Q8TDD5); experiment: Fluorescent TRPML3 assay (performed as for TRPML1, substituting the TRPML3 subtype); assay type: cell-based
T1 construct: expressed in transfected cells
T1 sequence (Q8TDD5 1-553): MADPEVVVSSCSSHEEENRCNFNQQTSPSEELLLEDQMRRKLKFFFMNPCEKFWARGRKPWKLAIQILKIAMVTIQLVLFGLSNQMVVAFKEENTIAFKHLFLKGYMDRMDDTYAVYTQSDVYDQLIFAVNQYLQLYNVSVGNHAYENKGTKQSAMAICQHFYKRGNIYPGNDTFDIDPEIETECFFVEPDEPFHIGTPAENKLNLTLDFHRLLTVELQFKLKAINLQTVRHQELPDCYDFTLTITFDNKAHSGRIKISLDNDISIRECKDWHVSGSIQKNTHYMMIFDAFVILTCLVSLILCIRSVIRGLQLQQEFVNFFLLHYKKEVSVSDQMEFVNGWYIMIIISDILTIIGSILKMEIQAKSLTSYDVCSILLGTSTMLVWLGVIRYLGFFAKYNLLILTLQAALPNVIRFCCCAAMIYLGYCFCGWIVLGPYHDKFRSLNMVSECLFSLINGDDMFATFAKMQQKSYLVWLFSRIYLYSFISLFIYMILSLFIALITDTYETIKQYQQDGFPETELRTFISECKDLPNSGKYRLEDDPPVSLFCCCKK
Experimental: as §1, §2, §3, §4, §5
TRPML2 and TRPML3 Assays Assays for TRPML2 and TRPML3 were performed as above for TRPML1, by substituting the appropriate TRPML2 or TRPML3 subtype for the TRPML1.
as §6

TRPML1, sequence (Q9GZU1 whole entry L15A/L16A/L577A/L578A, form open): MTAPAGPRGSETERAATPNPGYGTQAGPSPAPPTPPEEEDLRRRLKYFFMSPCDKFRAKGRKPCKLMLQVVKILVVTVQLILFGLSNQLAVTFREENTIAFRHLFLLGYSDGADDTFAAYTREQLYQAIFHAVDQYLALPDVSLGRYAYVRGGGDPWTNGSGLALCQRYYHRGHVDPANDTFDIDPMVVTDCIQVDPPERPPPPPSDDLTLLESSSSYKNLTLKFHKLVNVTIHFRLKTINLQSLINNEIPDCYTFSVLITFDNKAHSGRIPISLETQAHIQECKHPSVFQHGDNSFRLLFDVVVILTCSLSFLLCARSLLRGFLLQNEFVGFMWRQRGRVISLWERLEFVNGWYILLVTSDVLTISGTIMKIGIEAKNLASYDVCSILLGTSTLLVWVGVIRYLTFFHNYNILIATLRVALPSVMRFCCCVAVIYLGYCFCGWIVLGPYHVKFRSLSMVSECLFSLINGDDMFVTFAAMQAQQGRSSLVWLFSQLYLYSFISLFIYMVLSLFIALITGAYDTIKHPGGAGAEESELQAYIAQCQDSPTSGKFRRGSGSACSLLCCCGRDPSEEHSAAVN

pEC50 ([1]; fluorescent calcium assay)	pEC50 ([2]; fluorescent calcium assay)	pEC50 [1]	pEC50 [2]	Structure (SMILES)
> 7.00	> 7.00	–	–	C[C@@H]1CN(c2ncnc3c2c(C2CC2)cn3-c2cc(C#N)ccn2)[C@@H](C)CN1C(=O)OC(C)(C)C [Compound 394, tert-butyl (2R,5S)-4-(7-(4-cyanopyridin-2-yl)-5-cyclopropyl-7H-pyrrolo[2,3-d]pyrimidin-4-yl)-2,5-dimethylpiperazine-1-carboxylate]
> 7.00	> 7.00	–	–	CC(C)(C)OC(=O)N1CCN(c2ncnc3c2c(C2CC2)cn3-c2cc(C#N)ccn2)CC1(C)C [Compound 395, tert-butyl 4-(7-(4-cyanopyridin-2-yl)-5-cyclopropyl-7H-pyrrolo[2,3-d]pyrimidin-4-yl)-2,2-dimethylpiperazine-1-carboxylate]
6.30 to 7.00	> 7.00	–	–	CC(C)(C)OC(=O)N1CCN(c2ncnc3c2c(C2CC2)cn3-c2cc(C#N)ccn2)CC12CC2 [Compound 396, tert-butyl 7-(7-(4-cyanopyridin-2-yl)-5-cyclopropyl-7H-pyrrolo[2,3-d]pyrimidin-4-yl)-4,7-diazaspiro[2.5]octane-4-carboxylate]
< 5.70	6.30 to 7.00	–	–	C[C@H]1CN(C(=O)OC(C)(C)C)CCN1c1ncnc2c1c(C1CC1)cn2-c1ncc(C#N)s1 [Compound 397, tert-butyl (S)-4-(7-(5-cyanothiazol-2-yl)-5-cyclopropyl-7H-pyrrolo[2,3-d]pyrimidin-4-yl)-3-methylpiperazine-1-carboxylate]
> 7.00	6.30 to 7.00	–	–	CC(C)C(=O)N1CCN(c2nccc3c2c(-c2ccccc2F)cn3-c2cc(C#N)ccn2)[C@@H](C)C1 [Compound 450, (S)-2-(3-(2-fluorophenyl)-4-(4-isobutyryl-2-methylpiperazin-1-yl)-1H-pyrrolo[3,2-c]pyridin-1-yl)isonicotinonitrile]
> 7.00	> 7.00	–	–	CC(C)(C)OC(=O)N1CCN(c2ncnc3c2c(-c2ccccc2F)cn3-c2nccc(C#N)n2)CC1 [Compound 459]
5.70 to 6.30	6.30 to 7.00	–	–	CC(C)(C)OC(=O)N1CC2(C1)CN(c1ncnc3c1c(C1CC1)cn3-c1cc(Cl)cc(Cl)c1)C2 [Compound 464, tert-butyl 6-(5-cyclopropyl-7-(3,5-dichlorophenyl)-7H-pyrrolo[2,3-d]pyrimidin-4-yl)-2,6-diazaspiro[3.3]heptane-2-carboxylate]
< 5.70	5.70 to 6.30	–	–	C[C@@H]1CN(C(=O)OC(C)(C)C)CCN1c1ncnc2c1c(C1CCOCC1)cn2-c1cc(F)cc(F)c1 [Compound 467, tert-butyl (R)-4-(7-(3,5-difluorophenyl)-5-(tetrahydro-2H-pyran-4-yl)-7H-pyrrolo[2,3-d]pyrimidin-4-yl)-3-methylpiperazine-1-carboxylate]
5.70 to 6.30	5.70 to 6.30	–	–	C[C@H]1CN(C(=O)OC(C)(C)C)CCN1c1ncnc2c1c(C1CCOCC1)cn2-c1cccc(F)c1 [Compound 470, tert-butyl (S)-4-(7-(3-fluorophenyl)-5-(tetrahydro-2H-pyran-4-yl)-7H-pyrrolo[2,3-d]pyrimidin-4-yl)-3-methylpiperazine-1-carboxylate]
–	–	> 7.00	> 7.00	C[C@@H]1CN(c2ncnc3c2c(C(F)(F)F)cn3-c2cc(C#N)ccn2)[C@@H](C)CN1C(=O)OC1CC1 [Compound 515, cyclopropyl (2R,5S)-4-(7-(4-cyanopyridin-2-yl)-5-(trifluoromethyl)-7H-pyrrolo[2,3-d]pyrimidin-4-yl)-2,5-dimethylpiperazine-1-carboxylate]
–	–	6.30 to 7.00	6.30 to 7.00	Cc1c(C(F)(F)F)c2c(N3C[C@@H](C)N(C(=O)OC(C)(C)C)C[C@@H]3C)ncnc2n1-c1cc(C#N)ccn1 [Compound 531, tert-butyl (2R,5S)-4-(7-(4-cyanopyridin-2-yl)-6-methyl-5-(trifluoromethyl)-7H-pyrrolo[2,3-d]pyrimidin-4-yl)-2,5-dimethylpiperazine-1-carboxylate]
–	–	6.30 to 7.00	5.70 to 6.30	C[C@@H]1CN(c2ncnc3c2c(C(F)F)cn3-c2cc(F)cc(F)c2)[C@@H](C)CN1C(=O)OC1(C)CC1 [Compound 607, 1-methylcyclopropyl (2R,5S)-4-(5-(difluoromethyl)-7-(3,5-difluorophenyl)-7H-pyrrolo[2,3-d]pyrimidin-4-yl)-2,5-dimethylpiperazine-1-carboxylate]
–	–	6.30 to 7.00	6.30 to 7.00	C[C@@H]1CN(c2ncnc3c2c(C(F)F)cn3-c2cc(F)ccn2)[C@@H](C)CN1C(=O)OC1(C)CC1 [Compound 611, 1-methylcyclopropyl (2R,5S)-4-(5-(difluoromethyl)-7-(4-fluoropyridin-2-yl)-7H-pyrrolo[2,3-d]pyrimidin-4-yl)-2,5-dimethylpiperazine-1-carboxylate]
–	–	> 7.00	> 7.00	C[C@@H]1CN(c2ncnc3c2c(C(F)F)cn3-c2cc(C#N)ccn2)[C@@H](C)CN1C(=O)OC1(C)CC1 [Compound 613, 1-methylcyclopropyl (2R,5S)-4-(7-(4-cyanopyridin-2-yl)-5-(difluoromethyl)-7H-pyrrolo[2,3-d]pyrimidin-4-yl)-2,5-dimethylpiperazine-1-carboxylate]
–	–	> 7.00	5.70 to 6.30	C[C@@H]1CN(c2ncnc3c2c(C(F)(F)F)cn3C2CCCC2)[C@@H](C)CN1C(=O)OC(C)(C)C [Compound 626, tert-butyl (2R,5S)-4-(7-cyclopentyl-5-(trifluoromethyl)-7H-pyrrolo[2,3-d]pyrimidin-4-yl)-2,5-dimethylpiperazine-1-carboxylate]
–	–	5.70 to 6.30	5.70 to 6.30	C[C@@H]1CN(c2ncnc3c2c(C(F)F)cn3C2CCCC2)[C@@H](C)CN1C(=O)OC(C)(C)C [Compound 628, tert-butyl (2R,5S)-4-(7-cyclopentyl-5-(difluoromethyl)-7H-pyrrolo[2,3-d]pyrimidin-4-yl)-2,5-dimethylpiperazine-1-carboxylate]
–	–	5.70 to 6.30	< 5.70	C[C@@H]1CN(c2ncnc3c2c(C(F)(F)F)cn3C2CCOCC2)[C@@H](C)CN1C(=O)OC(C)(C)C [Compound 630, tert-butyl (2R,5S)-2,5-dimethyl-4-(7-(tetrahydro-2H-pyran-4-yl)-5-(trifluoromethyl)-7H-pyrrolo[2,3-d]pyrimidin-4-yl)piperazine-1-carboxylate]
–	–	5.70 to 6.30	< 5.70	C[C@@H]1CN(c2ncnc3c2c(C(F)(F)F)cn3[C@H]2CCCOC2)[C@@H](C)CN1C(=O)OC(C)(C)C [Compound 631, tert-butyl (2R,5S)-2,5-dimethyl-4-(7-((S)-tetrahydro-2H-pyran-3-yl)-5-(trifluoromethyl)-7H-pyrrolo[2,3-d]pyrimidin-4-yl)piperazine-1-carboxylate]
–	–	5.70 to 6.30	< 5.70	C[C@@H]1CN(c2ncnc3c2c(C(F)(F)F)cn3[C@@H]2CCCOC2)[C@@H](C)CN1C(=O)OC(C)(C)C [Compound 632, tert-butyl (2R,5S)-2,5-dimethyl-4-(7-((R)-tetrahydro-2H-pyran-3-yl)-5-(trifluoromethyl)-7H-pyrrolo[2,3-d]pyrimidin-4-yl)piperazine-1-carboxylate]

Structure (SMILES)	pEC50 ([1]; fluorescent calcium assay)	pEC50 ([2]; fluorescent calcium assay)	pEC50 [1]	pEC50 [2]
C[C@@H]1CN(c2ncnc3c2c(OC2CCC2)cn3-c2cc(C#N)ccn2)[C@@H](C)CN1C(=O)OC(C)(C)C [Compound 508, tert-butyl (2R,5S)-4-(7-(4-cyanopyridin-2-yl)-5-cyclobutoxy-7H-pyrrolo[2,3-d]pyrimidin-4-yl)-2,5-dimethylpiperazine-1-carboxylate]	–	–	> 7.00	> 7.00
